The record followed here is patent US20230159527A1, “COMPOUNDS AS BCL-2 INHIBITORS” (Fochon Pharmaceuticals, Ltd., priority 2020, published 2023).

The test system of one assay is DoHH2 cells. Description: Cell proliferation assay, DoHH2 cells (MTS, 120 h). Type of assay: cell-based. The settings on record: Homo sapiens, DOHH-2. As for the experimental part:
MTS testing kit was purchased from Promega (Madison, Wis., USA). The RPMI-1640, Fetal bovine serum and Penicillin-Streptomycin were purchased from BI (Biological Industries, Beit Haemek, Israel). Dimethyl sulfoxide (DMSO) was purchased from Sigma (St. Louis, Mo., USA). DoHH2 (DSMZ catalog #: ACC47) cells were cultured in RPMI-1640 supplemented with Penicillin-Streptomycin and 10% FBS.
To investigate whether a compound is able to inhibit the activity of BCL-2 in cells, a mechanism-based assay using DoHH2 lines was developed. In this assay, the inhibition of BCL-2 was reflected by the inhibition of cell proliferation of DoHH2 cells. Cells were plated into 96-well plates at the optimized cell density of 5000 cells/well. Plates were incubated at 37° C., with 5% CO2 for 4h. Compounds were serially diluted and added to the plates with the final concentrations of 10000, 3333.3, 1111.1, 370.4, 123.5, 41.2, 13.7, 4.6 and 1.5 nM. Plates were incubated at 37° C., with 5% CO2 for 120 h. 20 μl MTS was added into each well and the plates were incubated at 37° C., with 5% CO2 for exactly 2 h. The absorbance was measured by a microplate reader at 490 nm. IC50 was calculated using GraphPad Prism 5.0 software.

Another assay concerns Toledo cells. Description: Cell proliferation assay, Toledo cells (MTS, 72 h). Type of assay: cell-based. The settings on record: Homo sapiens, Toledo cells, MTS, read-out: Toledo IC50. The method in brief:
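IC50 was derived from 490 nm absorbance after a 2 h MTS step. Before that, compounds at 1.5–10000 nM final (nine points) acted on Toledo cells for 72 h at 37 °C, 5% CO2. Cells were seeded at 30000/well in 10% FBS RPMI-1640 and rested 4 h before dosing.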

A value given as a limit tells only on which side of the number the result lay.

In general, IC50 refers to the point on the concentration scale where inhibition reaches its midpoint. Take `CC(C)c1ccccc1C1COCCN1C1CC2(CCN(c3ccc(C(=O)NS(=O)(=O)c4cc([N+](=O)[O-])c5c(n4)OC[C@H](CC4CCOCC4)N5)c(Oc4cnc5[nH]ccc5c4)c3)CC2)C1` (single isomer, unassigned) [Example B-51, 2-((1H-pyrrolo[2,3-b]pyridin-5-yl)oxy)-4-(2-((R or S)-3-(2-isopropylphenyl)morpholino)-7-azaspiro[3.5]nonan-7-yl)-N-(((S)-8-nitro-2-((tetrahydro-2H-pyran-4-yl)methyl)-2,3-dihydro-1H-pyrido[2,3-b][1,4]oxazin-6-yl)sulfonyl)benzamide]: the IC50 in the assay with DoHH2 cells is ≤ 1 nM.

Consider `CC(C)c1ccccc1C1CCCN1C1CC2(CCN(c3ccc(C(=O)NS(=O)(=O)c4cc([N+](=O)[O-])c5c(n4)OC[C@H](CC4CCOCC4)N5)c(Oc4cnc5[nH]ccc5c4)c3)CC2)C1` (single isomer, unassigned) [Example B-40, 2-((1H-pyrrolo[2,3-b]pyridin-5-yl)oxy)-4-(2-((R or S)-2-(2-isopropylphenyl)pyrrolidin-1-yl)-7-azaspiro[3.5]nonan-7-yl)-N-(((S)-8-nitro-2-((tetrahydro-2H-pyran-4-yl)methyl)-2,3-dihydro-1H-pyrido[2,3-b][1,4]oxazin-6-yl)sulfonyl)benzamide], for which the IC50 with DoHH2 cells is ≤ 1 nM.

On to `CC(C)c1ccccc1[C@@H]1CCCN1C1CC2(CCN(c3ccc(C(=O)NS(=O)(=O)c4cc([N+](=O)[O-])c5c(n4)OC[C@H]([C@H]4CC[C@@](C)(O)CC4)N5)c(Oc4cnc5[nH]ccc5c4)c3)CC2)C1` (single isomer, unassigned) [Example B-35, 2-((1H-pyrrolo[2,3-b]pyridin-5-yl)oxy)-N-(((S)-2-((1s,4R)-4-hydroxy-4-methylcyclohexyl)-8-nitro-2,3-dihydro-1H-pyrido[2,3-b] [1,4]oxazin-6-yl)sulfonyl)-4-(2-((R or S)-2-(2-isopropylphenyl)pyrrolidin-1-yl)-7-azaspiro[3.5]nonan-7-yl)benzamide], for which the half-maximal inhibitory concentration (IC50) with DoHH2 cells was ≤ 1 nM. As for `O=C(NS(=O)(=O)c1cc2c(c([N+](=O)[O-])c1)O[C@@H](CN1CCOCC1)CO2)c1ccc(N2CCC3(CC2)CC(N2CCOC[C@H]2c2ccccc2C2CC2)C3)cc1Oc1cnc2[nH]ccc2c1` (single isomer, unassigned) [Example E-37, 2-((1H-pyrrolo [2,3-b]pyridin-5-yl)oxy)-4-(2-((R or S)-3-(2-cyclopropylphenyl)morpholino)-7-azaspiro[3.5]nonan-7-yl)-N-(((S)-2-(morpholinomethyl)-8-nitro-2,3-dihydrobenzo [b][1,4]dioxin-6-yl)sulfonyl) benzamide], the IC50 in the assay with DoHH2 cells was ≤ 1 nM. The same measure, in the same setting: for `CC(C)c1ccccc1[C@@H]1COCCN1C1CC2(CCN(c3ccc(C(=O)NS(=O)(=O)c4cc([N+](=O)[O-])c5c(n4)OC[C@H]([C@H]4CC[C@@](C)(O)CC4)N5)c(Oc4cnc5[nH]ccc5c4)c3)CC2)C1` (single isomer, unassigned) [Example B-48, 2-((1H-pyrrolo[2,3-b]pyridin-5-yl)oxy)-N-(((S)-2-((1s,4R)-4-hydroxy-4-methylcyclohexyl)-8-nitro-2,3-dihydro-1H-pyrido[2,3-b] [1,4]oxazin-6-yl)sulfonyl)-4-(2-((R or S)-3-(2-isopropylphenyl)morpholino)-7-azaspiro[3.5]nonan-7-yl) benzamide] the value was ≤ 1 nM; for `O=C(NS(=O)(=O)c1cc2c(c([N+](=O)[O-])c1)O[C@@H](CN1CCOCC1)CO2)c1ccc(N2CCC3(CC2)CC(N2CCC[C@H]2c2ccccc2C2CC2)C3)cc1Oc1cnc2[nH]ccc2c1` (single isomer, unassigned) [Example E-34, 2-((1H-pyrrolo [2,3-b]pyridin-5-yl)oxy)-4-(2-((R or S)-2-(2-cyclopropylphenyl)pyrrolidin-1-yl)-7-azaspiro[3.5]nonan-7-yl)-N-(((5)-2-(morpholinomethyl)-8-nitro-2,3-dihydrobenzo [b][1,4]dioxin-6-yl)sulfonyl) benzamide], ≤ 1 nM.

`O=C(NS(=O)(=O)c1cc2c(c([N+](=O)[O-])c1)N[C@@H](CN1CCOCC1)CCO2)c1ccc(N2CCC3(CC2)CC(N2CCC[C@H]2c2ccccc2C2CC2)C3)cc1Oc1cnc2[nH]ccc2c1` (single isomer, unassigned) [Example D-24, 2-((1H-pyrrolo[2,3-b]pyridin-5-yl)oxy)-4-(2-((R or S)-2-(2-cyclopropylphenyl)pyrrolidin-1-yl)-7-azaspiro[3.5]nonan-7-yl)-N-(((R)-4-(morpholinomethyl)-6-nitro-2,3,4,5-tetrahydrobenzo [b][1,4]oxazepin-8-yl)sulfonyl) benzamide]: in the assay with DoHH2 cells, the IC50 was ≤ 1 nM. For `COc1nc2[nH]ccc2cc1Oc1cc(N2CCC3(CC2)CC(N2CCOC[C@H]2c2ccccc2C(C)C)C3)ccc1C(=O)NS(=O)(=O)c1cnc(NC[C@H]2CC[C@](C)(O)CC2)c([N+](=O)[O-])c1` (single isomer, unassigned) [Example A-125, N-((6-((((1r,4r)-4-hydroxy-4-methyl-cyclohexyl)methyl)amino)-5-nitropyridin-3-yl)sulfonyl)-4-(2-((R or S)-3-(2-isopropylphenyl)morpholino)-7-azaspiro[3.5]nonan-7-yl)-2-((6-methoxy-1H-pyrrolo[2,3-b]pyridin-5-yl)oxy)benzamide], in the assay on Toledo cells, the IC50 turned out to be 2 nM. For the molecule `COCCNc1nc2[nH]ccc2cc1Oc1cc(N2CCC3(CC2)CC(N2CCC[C@H]2c2ccccc2C(C)C)C3)ccc1C(=O)NS(=O)(=O)c1cc2c(c([N+](=O)[O-])c1)N[C@@H]([C@H]1CC[C@](C)(O)CC1)CO2` (single isomer, unassigned) [Example D-56, N-(((S)-3-((1r,4S)-4-hydroxy-4-methylcyclohexyl)-5-nitro-3,4-dihydro-2H-benzo[b][1,4]oxazin-7-yl)sulfonyl)-4-(2-((R or S)-2-(2-isopropylphenyl)pyrrolidin-1-yl)-7-azaspiro[3.5]nonan-7-yl)-2-((6-((2-methoxyethyl)amino)-1H-pyrrolo[2,3-b]pyridin-5-yl)oxy)benzamide], the IC50 with Toledo cells stood at 1 nM. In the case of `CC(C)c1ccccc1[C@@H]1CCC[C@@H]1N1CC2(CCN(c3ccc(C(=O)NS(=O)(=O)c4ccc(NC[C@H]5CC[C@](C)(O)CC5)c([N+](=O)[O-])c4)c(Oc4cc5cc[nH]c5nc4OC[C@@H]4COCCO4)c3)CC2)C1` (single isomer, unassigned) [Example D-236, 2-((6-(((S)-1,4-dioxan-2-yl)methoxy)-1H-pyrrolo[2,3-b]pyridin-5-yl)oxy)-N-((4-(((1r,4r)-4-hydroxy-4-methylcyclohexyl)methyl)amino)-3-nitrophenyl)sulfonyl)-4-(2-((1S,2S or 1R,2R)-2-(2-isopropylphenyl)cyclopentyl)-2,7-diazaspiro[3.5]nonan-7-yl)benzamide], the IC50 in the assay with Toledo cells came to 1 nM. The same measure, in the same setting: as for `CC(C)c1ccccc1[C@@H]1CCCN1C1CC2(CCN(c3ccc(C(=O)NS(=O)(=O)c4cc5c(c([N+](=O)[O-])c4)N[C@@H]([C@H]4CC[C@](C)(O)CC4)CO5)c(Oc4cc5cc[nH]c5nc4OCCO)c3)CC2)C1` (single isomer, unassigned) [Example D-68, N-(((S)-3-((1r,4S)-4-hydroxy-4-methylcyclohexyl)-5-nitro-3,4-dihydro-2H-benzo[b][1,4]oxazin-7-yl)sulfonyl)-2-((6-(2-hydroxyethoxy)-1H-pyrrolo[2,3-b]pyridin-5-yl)oxy)-4-(2-((R or S)-2-(2-isopropylphenyl)pyrrolidin-1-yl)-7-azaspiro[3.5]nonan-7-yl)benzamide], the figure is 1 nM.
